Test [1] relates to Escherichia coli. In words: Antibacterial activity against Escherichia coli GR501 harboring temperature sensitive lig251 mutant rescued with T4 DNA ligase after 20 hrs. Type of test: functional.
Test [2] concerns Salmonella typhimurium. In words: Antibacterial activity against Salmonella typhimurium LT2 expressing LigA after 20 hrs. Type of test: functional.
For test [3], the system named is Salmonella typhimurium. In words: Antibacterial activity against Salmonella typhimurium TT15151 harboring LigA null mutant rescued with ATP-dependent DNA ligase after 20 hrs. Type of test: functional, Salmonella enterica subsp. enterica serovar Typhimurium.
Test [4] concerns Salmonella typhimurium. In words: Bactericidal activity against Salmonella typhimurium LT2 expressing LigA assessed as bacterial cell viability at 0.5 to 2.5 times MIC after 5 hrs. The format is functional, organism-based. Particulars: Salmonella enterica subsp. enterica serovar Typhimurium.
In test [5] the test system is Salmonella typhimurium. Kind of test: Bactericidal activity against Salmonella typhimurium TT15151 harboring LigA null mutant rescued with ATP-dependent DNA ligase assessed as bacterial cell viability at 0.5 to 2.5 times MIC after 5 hrs. Type of test: functional, organism-based. The conditions noted are these: Salmonella enterica subsp. enterica serovar Typhimurium.

The nature of test [6]: Inhibition of Mycobacterium tuberculosis DNA LigA using 22-mer and 18-mer DNA complementary strand as substrate after 1 hr by 15% polyacrylamide gel electrophoresis.
A short description of test [7]: Inhibition of Bacteriophage […] using 22-mer and 18-mer DNA complementary strand as substrate after 1 hr by 15% polyacrylamide gel electrophoresis. On the set-up: species or system Tequatrovirus T4.
The next test addresses DNA ligase 1 (Homo sapiens, UniProt P18858). Kind of test: Inhibition of human DNA ligase 1 expressed in Escherichia coli BL21 (DE3) using 22-mer and 18-mer DNA complementary strand as substrate after 1 hr by 15% polyacrylamide gel electrophoresis.
The nature of test [8]: Ratio of IC50 for Bacteriophage T4 DNA ligase to IC50 for Mycobacterium tuberculosis DNA LigA.
A short description of test [9]: Ratio of IC50 for human DNA ligase 1 to IC50 for Mycobacterium tuberculosis DNA LigA.
Test [10] can be described thus: Competitive inhibition of Mycobacterium tuberculosis DNA LigA using NDA+ as substrate by double reciprocal plot analysis.
The next test is filed under the species Bos taurus. In words: Displacement of ethidium bromide from calf thymus DNA assessed as relative fluorescence intensity at 250 uM.
The test system of test [11] is Escherichia coli. In words: Binding affinity to Escherichia coli pUC18 DNA after 1 hr by gel shift assay.
Setting [12] is: Salmonella enterica subsp. enterica serovar Typhimurium.
[13] abbreviates: Salmonella enterica, TT15151, 20 h.

We go through 17 molecules from ChEMBL document CHEMBL3217442, “Synthesis and bioevaluation of aryl hydroxamates distinguishing between NAD+ and ATP-dependent DNA ligases” (Medchemcomm, 2012).

≈ marks a conversion by molar mass, not a printed value. Calls of active or inactive are those of the source. The calls are words filed in the database; no cut-off is given here. A value given as a limit tells only on which side of the number the result lay.

DNA ligase 1, sequence (P18858 whole entry): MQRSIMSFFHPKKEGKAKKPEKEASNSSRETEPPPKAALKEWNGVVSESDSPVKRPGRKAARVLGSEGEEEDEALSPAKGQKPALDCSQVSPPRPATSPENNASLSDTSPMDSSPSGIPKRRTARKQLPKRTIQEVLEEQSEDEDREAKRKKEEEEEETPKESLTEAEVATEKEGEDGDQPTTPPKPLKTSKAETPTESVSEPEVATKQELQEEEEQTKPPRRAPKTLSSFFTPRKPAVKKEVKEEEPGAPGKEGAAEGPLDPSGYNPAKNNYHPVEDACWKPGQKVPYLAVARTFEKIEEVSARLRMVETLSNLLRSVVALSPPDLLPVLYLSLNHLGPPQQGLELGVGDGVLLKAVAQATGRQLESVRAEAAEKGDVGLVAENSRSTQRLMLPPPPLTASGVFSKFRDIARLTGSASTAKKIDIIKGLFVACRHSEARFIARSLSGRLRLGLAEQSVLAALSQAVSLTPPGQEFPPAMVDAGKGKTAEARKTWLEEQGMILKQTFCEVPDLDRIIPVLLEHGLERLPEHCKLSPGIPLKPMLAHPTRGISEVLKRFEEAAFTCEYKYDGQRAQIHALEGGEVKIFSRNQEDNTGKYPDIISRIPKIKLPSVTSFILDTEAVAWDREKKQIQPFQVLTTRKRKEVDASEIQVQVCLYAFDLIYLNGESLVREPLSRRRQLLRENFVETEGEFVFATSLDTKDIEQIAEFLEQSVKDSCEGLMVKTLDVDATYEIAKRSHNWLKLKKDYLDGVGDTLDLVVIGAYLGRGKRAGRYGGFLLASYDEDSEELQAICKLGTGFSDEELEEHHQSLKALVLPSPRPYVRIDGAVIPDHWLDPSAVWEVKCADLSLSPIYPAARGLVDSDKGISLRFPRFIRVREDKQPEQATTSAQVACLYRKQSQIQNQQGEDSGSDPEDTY

The term MIC denotes the lowest concentration found to suppress growth. For `C=CCOc1ccc(OCc2ccccc2)cc1C(=O)NO`, the minimum inhibitory concentration (MIC) is 400 µg/mL (≈ 1340 µM) against Escherichia coli [1] (GR501, 20 h) and 150 µg/mL (≈ 501 µM) against Salmonella typhimurium [3] (setting [13]). Besides, in the test with Salmonella typhimurium [2] (setting [12]), the MIC result is “inactive”.
One may read the IC50 as the midpoint of a concentration-inhibition curve. A higher IC50 goes with weaker potency in that assay. As usually defined, the Ki is the dissociation constant of the complex between target and ligand, obtained from inhibition or displacement. Read a high Ki as lower affinity. With `C=CCOc1ccccc1C(=O)NO`, the MIC in the test with Escherichia coli [1] (GR501, 20 h) came to 90 µg/mL (≈ 466 µM); with Salmonella typhimurium [2] (Salmonella enterica, LT2, 20 h), 20 µg/mL (≈ 104 µM); with Salmonella typhimurium [3] (setting [13]), 70 µg/mL (≈ 362 µM). Also, the outcome with Salmonella typhimurium [4] and in the test with Salmonella typhimurium [5] was Active. For the same molecule, the IC50 in [6] is 7.07 µM; in [7], 62.3 µM; against DNA ligase 1 it was 59.3 µM. Further, the Ratio IC50 in test [8] and in test [9] was 10 throughout. In test [10], this molecule had a Ki of 4.3 µM. Also, the outcome in the test listed under Bos taurus and in the test with Escherichia coli [11] was inactive.
Consider `C=CCOc1ccc(OCC=C)c(C(=O)NO)c1`, for which the MIC turned out to be 200 µg/mL (≈ 802 µM) in the test on Escherichia coli [1] (GR501, 20 h) and 150 µg/mL (≈ 602 µM) with Salmonella typhimurium [3] (setting [13]). The MIC result in the test with Salmonella typhimurium [2] (setting [12]) is “inactive”.
With `C=CCOc1cc(OCc2ccc(Br)cc2)ccc1C(=O)NO`, the MIC result in the test on Escherichia coli [1] and with Salmonella typhimurium [2] (setting [12]) was “inactive” throughout. In the test on Salmonella typhimurium [3] (setting [13]), this molecule returned an MIC of 40 µg/mL (≈ 106 µM).
`C=CCOc1c(OCc2ccccc2)cccc1C(=O)NO`: the MIC result in the test with Escherichia coli [1], with Salmonella typhimurium [2] (setting [12]) and in the test on Salmonella typhimurium [3] (setting [12]) was “inactive” each time.
On to `CCCCCCOc1c(C(=O)NO)ccc2ccccc12`, for which, in the test with Escherichia coli [1] (GR501, 20 h), the MIC was greater than 200 µg/mL. For the same molecule, the IC50 was found to be 13.6 µM in test [6] and 9.6 µM in test [7]. In addition, the Ratio IC50 in [8] and in test [9] was 10 throughout.
With `C#CCOc1ccc(OCC=C)c(C(=O)NO)c1`, the MIC was found to be 150 µg/mL (≈ 607 µM) with Escherichia coli [1] (GR501, 20 h) and 600 µg/mL (≈ 2430 µM) with Salmonella typhimurium [2] (Salmonella enterica, LT2, 20 h). In addition, the MIC entry in the test with Salmonella typhimurium [3] (setting [12]) is “inactive”.
As for `C=CCOc1cc(OCc2cc(Cl)ccc2Cl)ccc1C(=O)NO`, the MIC entry in the test with Escherichia coli [1] and with Salmonella typhimurium [2] (setting [12]) was “inactive” each time. Also, the MIC in the test on Salmonella typhimurium [3] (setting [13]) is 200 µg/mL (≈ 543 µM).
`C=CCOc1cccc(C(=O)NO)c1OCC=C`: the MIC entry in the test with Escherichia coli [1] and in the test on Salmonella typhimurium [2] (setting [12]) was “inactive” in each case. The lowest concentration to inhibit growth against Salmonella typhimurium [3] (setting [13]) (MIC) was 400 µg/mL (≈ 1600 µM).
On to `C=CCOc1ccc(OCc2cc(Cl)ccc2Cl)cc1C(=O)NO`, for which the MIC with Escherichia coli [1] (GR501, 20 h) came out at 400 µg/mL (≈ 1090 µM); against Salmonella typhimurium [3] (setting [13]) it was 800 µg/mL (≈ 2170 µM). Moreover, the MIC result in the test with Salmonella typhimurium [2] (setting [12]) was “inactive”.
The matching figures for `C=CCOc1ccc(OCc2ccc(Br)cc2)cc1C(=O)NO`: 80 µg/mL (≈ 212 µM), 20 µg/mL (≈ 52.9 µM) and “inactive”.
In the case of `O=C(NO)c1ccccc1OCC(O)Cn1cc(-c2ccccc2)nn1` (stereo not drawn), the MIC in the test on Escherichia coli [1] (GR501, 20 h) was determined as 40 µg/mL (≈ 113 µM); in the test on Salmonella typhimurium [2] (Salmonella enterica, LT2, 20 h), 30 µg/mL (≈ 84.7 µM); in the test with Salmonella typhimurium [3] (setting [13]), 50 µg/mL (≈ 141 µM). The IC50 in [6] stood at 11.4 µM; in test [7] it was 31.4 µM; against DNA ligase 1 it was 41.8 µM. The Ratio IC50 in test [8] and in test [9] was 10 in each case. In addition, the result in the test filed under Bos taurus and in the test with Escherichia coli [11] was inactive.
Regarding `O=C(NO)c1ccc2ccccc2c1OCc1cccc(Cl)c1`, in the test with Escherichia coli [1], the MIC entry is “inactive”. Further, the IC50 is 20 µM in [6] and 12 µM in test [7]. Further, the Ratio IC50 in test [8] and in test [9] was 10 throughout.
The molecule `O=C(NO)c1ccc2ccccc2c1OCc1ccc(Cl)c(Cl)c1` returned an MIC with Escherichia coli [1] (GR501, 20 h) greater than 200 µg/mL. Also, the IC50 in test [6] came out at 10.6 µM; in test [7] it was 5.5 µM. The Ratio IC50 in test [8] and in test [9] was 10 throughout.
On to `C=CCOc1ccc(C(=O)NO)c(OCC=C)c1`, for which the MIC turned out to be 150 µg/mL (≈ 602 µM) with Escherichia coli [1] (GR501, 20 h) and 800 µg/mL (≈ 3210 µM) with Salmonella typhimurium [2] (Salmonella enterica, LT2, 20 h). Moreover, the MIC result in the test on Salmonella typhimurium [3] (setting [12]) is “inactive”.
With `O=C(NO)c1ccccc1OCc1ccc(Cl)c(Cl)c1`, in the test with Escherichia coli [1], the MIC result is “inactive”. The values for the IC50 in test [6] and in [7] were 20 µM and less than 20 µM, respectively. Further, the Ratio IC50 in test [8] and in test [9] was 10 each time.
On to `O=C(NO)c1ccccc1OCc1cccc(Cl)c1`, for which the MIC result in the test with Escherichia coli [1] was “inactive”. Further, the IC50 in test [6] was determined as 24 µM; in [7], 8 µM. Further, the Ratio IC50 in test [8] and in test [9] was 10 throughout.
